Measured values: US6753331B1, “Heterocyclic derivatives which inhibit factor Xa” (AstraZeneca AB, priority 1998, dated 2004)

Test system: not given
Assay: not given
Settings: not given

Question: With `O=C(c1ccc(-c2ccncc2)cc1)N1CCN(S(=O)(=O)c2cc3cc(Cl)ccc3[nH]2)CC1` [Example 3, 1-(5-chloroindol-2-ylsulphonyl)-4-[4-(4-pyridyl)benzoyl]piperazine] as the compound, how does the melting point read?
Answer: 185 to 188 °C

Question: For `O=C(c1ccc(-c2ccncn2)cc1)N1CCN(S(=O)(=O)c2cc3cc(Cl)ccc3[nH]2)CC1` [Example 4, 1-(5-Chloroindol-2-ylsulphonyl)-4-[4-(4-pyrimidyl)benzoyl]piperazine], which melting point is on record?
Answer: 229 to 230 °C

Question: For `O=C(c1ccc(-c2ccnnc2)cc1)N1CCN(S(=O)(=O)c2cc3cc(Cl)ccc3[nH]2)CC1` [Example 5, 1-(5-Chloroindol-2-ylsulphonyl)-4-[4-(4-pyridazinyl)benzoyl]piperazine], which melting point is on record?
Answer: 170 to 172 °C

Question: With `O=C(c1ccc(-n2ccnc2)cc1)N1CCN(S(=O)(=O)c2cc3cc(Cl)ccc3[nH]2)CC1` [Example 6, 1-(5-Chloroindol-2-ylsulphonyl)-4-[4-(1-imidazolyl)benzoyl]piperazine] as the compound, how does the melting point read?
Answer: 155 to 165 °C

Question: With `O=C(c1ccc(-c2ccncc2)cc1)N1CCN(S(=O)(=O)c2cc3ccc(Cl)cc3[nH]2)CC1` [Example 7, 1-(6-chloroindol-2-ylsulphonyl)-4-[4-(4-pyridyl)benzoyl]piperazine] as the compound, how does the melting point read?
Answer: 231 to 234 °C

Question: Which melting point does the source give for `O=C(c1ccc(-c2ccncc2)cc1)N1CCN(S(=O)(=O)c2nc3ccc(Cl)cc3[nH]2)CC1` [Example 8, 1-(5-chlorobenzimidazol-2-ylsulphonyl)-4-[4-(4-pyridyl)benzoyl]piperazine] here?
Answer: 242 to 244 °C

Test system: human thrombin
Assay: test b) C2 (PT) against human thrombin
Type: biochemical
Settings: PT = prothrombin time
Protocol: b) Measurement of Thrombin Inhibition
The procedure of method a) is repeated except that human thrombin (0.005 Units/ml) and the chromogenic substrate S-2238 (KabiVitrum AB, 7 μM) are employed.
c) Measurement of Anticoagulant Activity
An in vitro assay whereby human, rat or rabbit venous blood is collected and added directly to a sodium citrate solution (3.2 g/100 ml, 9 parts blood to 1 part citrate solution). Blood plasma is prepared by centrifugation (1000 g, 15 minutes) and stored at 2-4° C. Conventional prothrombin time (PT) tests are carried out in the presence of various concentrations of a test compound and the concentration of test compound required to double the clotting time, hereinafter referred to as CT2, is determined. In the PT test, the test compound and blood plasma are incubated at 37° C. for 10 minutes. Tissue thromboplastin with calcium (Sigma Limited, Poole, England) is added and fibrin formation and the time required for a clot to form are determined.

Question: For `O=C(c1ccc(-c2ccncc2)cc1)N1CCN(S(=O)(=O)c2cc3cc(Cl)ccc3o2)CC1` [Example 1, 1-(5-Chlorobenzo[b]furan-2-ylsulphonyl)-4-[4-(4-pyridyl)benzoyl]piperazine], which “C2 (PT) against human thrombin” value is on record?
Answer: 15 µM
